Experimental data published in BindingDB's records for doi:10.1021/acs.jmedchem.3c00250 (n/a, 2023).

Target: Protein arginine N-methyltransferase 5/MEP50 complex (Homo sapiens)
Experiment: Inhibition of full-length recombinant PRMT5/full-length recombinant MEP50 (unknown origin) expressed in baculovirus infected Sf21 cells using biotinylated H4R3(Mel) peptide as substrate preincubated for 60 mins followed by substrate addition and measured for 150 minutes in the presence of SAM by methylation assay

Question: With `CC(=O)N1CCC(Nc2cc(C(=O)N3CC[C@H](N4CCc5ccccc5C4)[C@@H](O)C3)c(F)cn2)CC1` as the compound, how does the EC50 read?
Answer: 0.9 nM
